biological target: Voltage-dependent calcium channel subunit alpha-2/delta-1 (Homo sapiens, UniProt P54289); assay: Binding Assay: α2δ-1: Binding Assay to Human α2δ-1 Subunit of Cav2.2 Calcium Channel.Human α2δ-1 enriched membranes (2.5 μg) were incubated with 15 nM of radiolabeled [3H]-Gabapentin in assay buffer containing Hepes-KOH 10 mM, pH 7.4.NSB (non specific binding) was measured by adding 10 μM pregabalin. After 60 min incubation at 27° C., binding reaction was terminated by filtering through Multiscreen GF/C (Millipore) presoaked in 0.5% polyethyleneimine in Vacuum Manifold Station, followed by 3 washes with ice-cold filtration buffer containing 50 mM Tris-HCl, pH 7.4.Filter plates were dried at 60° C. for 1 hour and 30 μl of scintillation cocktail were added to each well before radioactivity reading.Readings were performed in a Trilux 1450 Microbeta radioactive counter (Perkin Elmer).
Sequence (P54289 25-956 limits assumed): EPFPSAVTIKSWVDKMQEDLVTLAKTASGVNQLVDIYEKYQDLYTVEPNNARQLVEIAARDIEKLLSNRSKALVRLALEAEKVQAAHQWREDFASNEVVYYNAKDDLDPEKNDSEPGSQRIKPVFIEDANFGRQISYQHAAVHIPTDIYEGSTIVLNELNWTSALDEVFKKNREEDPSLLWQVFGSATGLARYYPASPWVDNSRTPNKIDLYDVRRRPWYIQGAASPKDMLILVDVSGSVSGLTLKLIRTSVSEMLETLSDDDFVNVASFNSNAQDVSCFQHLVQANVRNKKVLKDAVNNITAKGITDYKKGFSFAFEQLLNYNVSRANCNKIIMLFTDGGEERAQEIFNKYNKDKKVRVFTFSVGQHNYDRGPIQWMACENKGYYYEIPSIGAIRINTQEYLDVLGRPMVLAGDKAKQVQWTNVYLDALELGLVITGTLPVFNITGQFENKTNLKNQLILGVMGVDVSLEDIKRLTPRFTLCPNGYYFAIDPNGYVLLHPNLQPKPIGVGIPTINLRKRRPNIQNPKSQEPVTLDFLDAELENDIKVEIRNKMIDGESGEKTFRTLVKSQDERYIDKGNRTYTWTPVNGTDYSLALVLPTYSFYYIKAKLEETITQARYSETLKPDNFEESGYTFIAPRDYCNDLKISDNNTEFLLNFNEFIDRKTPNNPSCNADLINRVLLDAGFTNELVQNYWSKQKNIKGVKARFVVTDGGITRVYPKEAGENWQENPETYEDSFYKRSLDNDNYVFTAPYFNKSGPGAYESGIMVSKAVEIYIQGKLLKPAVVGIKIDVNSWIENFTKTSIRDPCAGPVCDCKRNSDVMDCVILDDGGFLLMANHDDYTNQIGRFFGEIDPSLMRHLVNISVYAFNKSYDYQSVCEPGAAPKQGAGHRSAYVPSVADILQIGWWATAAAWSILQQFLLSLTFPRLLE
Sequence (P54289 957-1103 limits assumed): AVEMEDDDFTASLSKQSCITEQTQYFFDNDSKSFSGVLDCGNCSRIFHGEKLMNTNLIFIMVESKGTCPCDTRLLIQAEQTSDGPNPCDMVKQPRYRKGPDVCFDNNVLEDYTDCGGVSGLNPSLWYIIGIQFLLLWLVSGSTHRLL

Compound	Ki [µM]
CSc1ncc2c(n1)N(C)CCN(c1cccc(-c3nnc(CN(C)C(=O)OC(C)(C)C)o3)c1)C2=O	> 3
CCNc1cc2c(cn1)C(=O)N(c1cccc(COC(CCN(C)C(=O)OC(C)(C)C)c3ccccc3)c1)CCN2C (stereo not given)	> 3
CCNc1cc2c(cn1)C(=O)N(c1cccc(OC(CCN(C)C(=O)OC(C)(C)C)c3ccccc3)c1)CCN2C (stereo not given)	> 3

More lines, now with the values ahead:

Ki [µM]	Compound
> 3	CSc1ncc2c(n1)N(C)CCN(c1cccc(OC(CCN(CCF)C(=O)OC(C)(C)C)c3cccs3)c1)C2=O (stereo not given)
> 3	CNCC[C@H](Oc1cc(F)ccc1CN1CCN(C)c2nc(OC)ncc2C1=O)c1cccs1

Reference: ChEMBL document CHEMBL5727627, “Tetrahydropyrimidodiazepine and dihydropyridodiazepine compounds for treating pain and pain related conditions” (2020)
